From patent US10563263B2, “Genetic polymorphisms associated with statin response and cardiovascular diseases, methods of detection and uses thereof” (CELERA CORPORATION, priority 2010, dated 2020)

System: CVD (CHD or stroke)
Test: WOSCOPS: SNP by pravastatin treatment interaction, logistic regression (synergy index), CVD endpoint
Type: in vivo, human
Conditions: for OR (SNP x pravastatin treatment interaction): Imputed, WOSCOPS pravastatin vs placebo; for OR: WOSCOPS
Description: CARE was a secondary prevention trial and WOSCOPS was a primary prevention trial.
The CHD endpoint was defined in the analyses herein of CARE as a composite endpoint of fatal CHD, definite non-fatal MI, or revascularization, and was defined in the analyses herein of WOSCOPS as a composite endpoint of death from CHD, nonfatal MI, or revascularization. In both the CARE and WOSCOPS analyses herein, the CVD endpoint was defined as a composite endpoint of CHD or stroke. […] Revascularization, which can include percutaneous transluminal coronary angioplasty (PTCA), stent placement, and coronary artery bypass graft (CABG), are medical interventions that indicate the presence of CHD.
Cohort and case-only study designs were used to identify SNPs associated with response to statin treatment.
For each SNP, a logistic regression model having treatment status as the dependent variable and SNP as the independent predictor variable was performed, with terms for age, sex and race included in the model as covariates. The anti-log of the regression coefficient corresponding to the SNP is an estimate of the synergy index (SI) (Davis et al., “Imputing gene-treatment interactions when the genotype distribution is unknown using case-only and putative placebo analyses-a new method for the Genetics of Hypertension Associated Treatment (GenHAT) study”, Statistics in Medicine 23: (2004), pages 2413-2427). The SI is a ratio of odds ratios: for example in the CARE and WOSCOPS studies, the SI represents the factor by which the odds-ratio of statin treatment, compared with placebo, among major homozygous individuals is multiplied by in order to obtain the odds-ratio of treatment vs. placebo among heterozygous individuals; and multiplied by a second time to obtain the odds-ratio of treatment vs. placebo in minor homozygous individuals. […] In a randomized clinical trial, genotype and treatment are independent by design.

CC[C@H](C)C(=O)O[C@H]1C[C@H](O)C=C2C=C[C@H](C)[C@H](CC[C@@H](O)C[C@@H](O)CC(=O)O)[C@H]21 [Pravastatin, pravastatin]
OR (SNP x pravastatin treatment interaction) (SNP rs12820589, allele A1=G, model DOM): 1.936 | OR (SNP x pravastatin treatment interaction) (SNP rs12831292, allele A1=G, model ADD): 0.6841 | OR (SNP x pravastatin treatment interaction) (SNP rs12831292, allele A1=G, model DOM): 0.62 | OR (SNP x pravastatin treatment interaction) (SNP rs13012636, allele A1=G, model REC): 1.901 | OR (SNP x pravastatin treatment interaction) (SNP rs13038146, allele A1=C, model ADD): 1.407 | OR (SNP x pravastatin treatment interaction) (SNP rs13038146, allele A1=C, model REC): 1.414 | OR (SNP x pravastatin treatment interaction) (SNP rs13089860, allele A1=A, model DOM): 0.6221 | OR (SNP x pravastatin treatment interaction) (SNP rs13102419, allele A1=T, model REC): 1.668 | OR (synergy index), WOSCOPS, Prava vs Placebo (SNP rs13121569 (A1 G, A2 A), dom model, CVD endpoint, Caseonly): 0.78 | OR (SNP x pravastatin treatment interaction) (SNP rs13194907, allele A1=A, model ADD): 1.964 | OR (SNP x pravastatin treatment interaction) (SNP rs13194907, allele A1=A, model DOM): 2.136 | OR (SNP x pravastatin treatment interaction) (SNP rs13195745, allele A1=A, model ADD): 1.964 | OR (SNP x pravastatin treatment interaction) (SNP rs13195745, allele A1=A, model DOM): 2.136 | OR (SNP x pravastatin treatment interaction) (SNP rs13265054, allele A1=T, model DOM): 0.6754 | OR (SNP x pravastatin treatment interaction) (SNP rs13282131, allele A1=C, model ADD): 1.415 | OR (SNP x pravastatin treatment interaction) (SNP rs13282131, allele A1=C, model REC): 1.595 | OR (SNP x pravastatin treatment interaction) (SNP rs13387284, allele A1=A, model DOM): 0.5278 | OR (SNP x pravastatin treatment interaction) (SNP rs13401462, allele A1=C, model DOM): 2.137 | OR (SNP x pravastatin treatment interaction) (SNP rs13409045, allele A1=T, model ADD): 0.6931 | OR (marker rs208025, source caseonly, pravastatin vs placebo): 1.52 | OR (marker rs478859, source caseonly, pravastatin vs placebo): 1.33 | OR (marker rs623400, source caseonly, pravastatin vs placebo): 0.62 | OR (marker rs675163, source caseonly, pravastatin vs placebo): 0.71 | OR (marker rs1536506, source caseonly, pravastatin vs placebo): 1.43 | OR (marker rs1866386, source caseonly, pravastatin vs placebo): 0.81 | OR (marker rs2869680, source caseonly, pravastatin vs placebo): 0.70 | OR (marker rs2880563, source caseonly, pravastatin vs placebo): 1.51 | OR (marker rs4251580, source caseonly, pravastatin vs placebo): 0.55 | OR (marker rs4689078, source caseonly, pravastatin vs placebo): 1.45 | OR (marker rs5764592, source caseonly, pravastatin vs placebo): 1.87 | OR (marker rs6040760, source caseonly, pravastatin vs placebo): 1.23 | OR (marker rs7623808, source caseonly, pravastatin vs placebo): 4.22 | OR (marker rs7915250, source caseonly, pravastatin vs placebo): 0.81 | OR (marker rs10106852, source caseonly, pravastatin vs placebo): 1.56 | OR (marker rs10460737, source caseonly, pravastatin vs placebo): 0.10 | OR (marker rs10817479, source caseonly, pravastatin vs placebo): 1.37 | OR (marker rs12286877, source caseonly, pravastatin vs placebo): 2.30 | OR (marker rs12608167, source caseonly, pravastatin vs placebo): 0.66 | OR (marker rs17310169, source caseonly, pravastatin vs placebo): 0.81 | OR (marker rs77638540, source caseonly, pravastatin vs placebo): 0.68 | OR (rs198461 allele C DOM Imputed): 0.4755 | OR (rs208757 allele G ADD Imputed): 1.353 | OR (rs208757 allele G DOM Imputed): 1.453 | OR (rs331555, add, Caseonly, CVD, pravastatin vs placebo): 0.77 | OR (rs1076733, dom, Caseonly, CVD, pravastatin vs placebo): 0.62 | OR (rs1182878, add, Caseonly, CVD, pravastatin vs placebo): 0.75 | OR (rs1474396, dom, Caseonly, CVD, pravastatin vs placebo): 1.73 | OR (rs1782328 allele A ADD Imputed): 0.5789 | OR (rs1796337 allele T DOM Imputed): 0.5422 | OR (rs1798083 allele C DOM Imputed): 0.4733 | OR (rs1798085 allele T DOM Imputed): 0.4727 | OR (rs1798086 allele T DOM Imputed): 0.4689 | OR (rs1798089 allele C REC Imputed): 1.806 | OR (rs1798090 allele C REC Imputed): 1.806 | OR (rs1832222 allele G DOM Imputed): 1.351 | OR (rs1838104 allele A ADD Imputed): 0.6393 | OR (rs1868616 allele G ADD Imputed): 0.7123 | OR (rs1874313 allele A DOM Imputed): 0.6182
